Laboratory results taken from US20110195128A1, “TREATING OR PREVENTING GOUT” (priority 2008, published 2011).

Columns and labels:
[1] = cited from earlier work
[2] = system: IL-1β gene expression; experiment: THP-1 cell assay analysed by RT-PCR, IL-1β gene expression; assay type: cell-based; details: THP-1 cells, treatment as in Example 1 (FIG. 5)
Excerpt: THP-1 assays were used to study IL-1β and IL-8 gene expression by RT-PCR, using the same treatment protocols as described for the THP-1 ELISA assay in Example 1 above and the RT-PCR protocol described in Dalbeth et al, 2008.

[3] = system: IL-1β; experiment: THP-1 cell assay analysed by ELISA, MSU replaced with LPS, IL-1β production; assay type: cell-based; details: THP-1 cells, normalized to vehicle
Protocol: (§1) THP-1 cells were cultured in RPMI with 10% FCS, penicillin, streptomycin, glutamine and pyruvate. At day −1, 1.5×10^6 THP-1 cells were plated in 24 well plates. These cells were cultured in the presence or absence of 5 μM phorbol 12-myristate 13-acetate (PMA) for three hours. PMA is required for NALP-3 inflammasome activation and IL-1β production in response to MSU crystals. On day 0, medium was replaced in all wells. Cells were then pre-incubated with vehicle control, test substance at three concentrations, or diclofenac control (10 μg/ml) for 4 hours. MSU crystals were then added (0.5 mg/mL) Supernatants were harvested for ELISA after 16 hours. ELISA was conducted to determine inhibition of IL-1β expression. It has been reported that this cytokine is a pivotal regulator of the inflammatory response to MSU crystals (Chen et al 2006 and Martinon et al 2006). Inhibition of IL-8 expression was also determined.
The results are shown in Table 2 below and in FIGS. 1 and 2. Table 3 contrasts the result for GMP when the MSU was replaced with a different antigen, LPS. The casein hydrolysate tested was produced by extensively hydrolysing casein (to a degree of hydrolysis of 33%) using the enzymes pancreatin and corolase. […]

[4] = system: urate peritonitis model; experiment: Murine urate peritonitis model, total cellular influx; assay type: in vivo, CD1 mice; details: mice fed for a week before i.p. 3 mg MSU crystals; lavage after four hours; GMP 0.05-0.5 g per kg in drinking water; G600 precursor 12.5-100% of total fat in diet
Protocol: Adult male CD1 mice (Vernon Jansen Unit, University of Auckland) were housed in conventional facilities with temperature control and 12 hour light/dark cycles. All protocols involving live animals were subjected to ethical review and a range of welfare score sheets and action plans were used to monitor and minimize the impact of the study on the animals. Mice were fed milk extracts for a week prior to induction of peritonitis. At least eight mice were used for each experimental condition. GMP was dissolved in drinking water at 0.05, 0.1, 0.25 and 0.5 g per kg mouse. The G600™ milk fat extract precursor (Batch 2, freeze dried, no added lactose) was incorporated into rodent chow at 12.5, 25, 50 and 100% of total fat in diet.
The murine urate peritonitis protocol was based on the model described by Getting et al (1997). Adult male CD1 mice weighing 22-28 g were selected for the urate peritonitis model. Mice were anaesthetized using urethane. Peritonitis was induced by intraperitoneal injection of 3 mg MSU crystals resuspended in 250 μl PBS. The body temperature of anaesthetized mice was monitored and maintained at 37° C. using a heat pad, and hydration was maintained by subcutaneous injection of 0.9% NaCl (Normal Saline) at a volume of […] body weight two hours after initial treatments and every hour thereafter. […]

[5] = system: IL-8; experiment: THP-1 cell assay analysed by ELISA, MSU crystal-stimulated IL-8 release; assay type: cell-based; details: THP-1 cells, PMA, 4 h pre-incubation, MSU crystals 0.5 mg/mL, supernatant after 16 h; highest concentration of test substance; mean of at least three experiments; * p<0.05 vs vehicle
Protocol: as §1
(§2) A mean change in cytokine expression from cells treated with control vehicle pooled data from all experiments (10 μg/ml). Values represent mean (standard error) from at least three experiments in which cytokine release from wells treated with the highest concentration of milk extract has been normalized to vehicle treated wells.
(§3) The results are shown in Table 2 below and in FIGS. 1 and 2. Table 3 contrasts the result for GMP when the MSU was replaced with a different antigen, LPS. […]

[6] = system: IL-1β; experiment: THP-1 cell assay analysed by ELISA, MSU crystal-stimulated IL-1β release; assay type: cell-based; details: THP-1 cells
Protocol: as §1, §2, §3

| Molecule | adverse effects ([1]; all patients, within 24 hours of taking this medication) | reduction in pain in joints ([1]; gout patients, within 48 hours) [%] | IL-1β gene expression [2] | LPS-stimulated IL-1β production [3] | total cellular influx in the urate peritonitis model [4] | IL-8 (cytokine release normalized to vehicle treated wells) [5] | IL-1β (cytokine release normalized to vehicle treated wells) ([6]; PMA, 4 h pre-incubation, MSU crystals 0.5 mg/mL, supernatant after 16 h, highest concentration of test substance, mean of at least three experiments, * p<0.05 vs vehicle) | MSU crystal-stimulated IL-1β production ([6]; normalized to vehicle, * p<0.05) |
| --- | --- | --- | --- | --- | --- | --- | --- | --- |
| COc1cc2c(c(OC)c1OC)-c1ccc(OC)c(=O)cc1[C@@H](NC(C)=O)CC2 [colchicine, Colchicine] | developed diarrhoea and/or vomiting | 50 |  |  |  |  |  |  |
| Glycomacropeptide [GMP] |  |  | inhibits | 0.94 | significant inhibition | 1.22 | 0.72* | 0.72* |
